Where a SMILES comes first, the peptide text is derived from it. [ ]: non-standard residue; d: D form.
Tests used:
[1] = Stability of peptides incubated with rat brain homogenate (RP-HPLC / LC-MS); type: in vitro ADME; conditions: for remaining at 3 h, 0.2 mM / remaining at 24 h, 0.2 mM / remaining at 0.25 h, 0.2 mM / remaining at 1 h, 0.2 mM: pH 7.6, 37° C.; for remaining at 3 h, 0.2 mM: read-out: portion of the amount of sample used left after 3 Hours; for remaining at 24 h, 0.2 mM: read-out: portion of the amount of sample used left after 24 Hours; for half-life at 0.2 mM: tris buffer pH 7.6, 37° C.; for remaining at 0.25 h, 0.2 mM: 15 minutes, read-out: portion of the amount of sample used left after 15 Minutes; for remaining at 1 h, 0.2 mM: read-out: portion of the amount of sample used left after 1 Hour
Procedure: An essential advantage of the peptidomimetic agents according to the invention, which consist of D-amino acids as well as glycine, is the higher stability compared to the degradation by various enzymes that occur in the body—in particular peptidases. For this reason, the stability of the nuclear sequence mimetic agent vGek was compared to that of the corresponding retroinverse peptide KEGV according to WO 03/082906 A, whereby the peptides together with a rat brain homogenate were incubated for 15 minutes as well as for 1, 3 and 24 hours.
To this end, freshly isolated rat brain was homogenized in tris buffer (pH 7.6) and used immediately. In each case, a portion of a 1 mmol peptide solution and four parts of the homogenate were incubated at 37° C. After the incubation, the decomposition of the enzymes was halted by adding 50 μl of 0.1 M HCl. Then, a denaturation of the proteins was carried out with methanol (volume ratio: 1:4) at −20° C. for 60 minutes. Then, it was centrifuged for 20 minutes at 4° C. and 29,000 g.
Finally, the samples were concentrated under vacuum and analyzed by means of RP-HPLC (liquid chromatography, with UV/vis detector, detection wavelength: 220 nm; solvent: (A) 0.1% TFA/water (A), 0.1% TFA in 80% ACN/water (B); column: Phenomenex Jupiter C18 (250×4 mm, 5 μm of 300 Å), flow rate: 1.2 ml/minute, gradients: 0 to 15% B after 30 minutes (KEGVOH), 0% isocratic B for 10 minutes, then at 0 to 15% B after 30 minutes (KEGVNH2), 0 to 15% B after 20 minutes (vGekNH2)).
As an alternative, LC-MS (Applied Biosystems 140C Microgradient System; solvent: 0.1% HCOOH/water (A), 0.1% HCOOH in 80% acetonitrile/water (B); column: Alltech Hypersil C18 (150×2.1 mm, 5 μm of 100 Å), flow rate: 0.15 ml/minute, gradient: 0 to 15% B after 20 minutes; detector: Finnigan TSQ-7000 Triple Quadrupole Mass Spectrometer, m/z Range; 10-1000, scan time: 1.0 second) was also used.

[2] = system: SHSY-5Y cells; experiment: MTT test, injury of differentiated SHSY-5Y cells with pre-aggregated Aβ-1-42; type: cell-based
Procedure: To examine the action of the peptidomimetic agent according to the invention in a relevant biological system, injury tests were performed in cell cultures with Aβ-1-42 (β-amyloid). Differentiated SHSY-5Y cells were used as cell culture systems.
The cells that were still not differentiated were cultivated in 96-well plates at 37° C. in an atmosphere in DMEM/F12 (Cambrex) that contains 5% CO2 until confluence is completed. For differentiation, the following medium composition was selected: 10 μmol of All-Trans-retinoic acid, 10% FBS, 4 mmol of L-glutamine, 200 units/ml of penicillin, 200 μg/ml of streptomycin, 0.5% DMSO in MEM non-essential amino acids (e.g., Cambrex). After 8 days in the differentiation medium, 3×10^5 cells/cm^2 in the form of a monolayer were present.
Before the application, the test substances were irradiated for 10 minutes in a form already dissolved in culture medium. This medium contained 2% FBS (fetal bovine serum) and was free of phenol red, retinoic acid and DMSO.
Aβ-1-42 was pre-aggregated before the addition for 24 hours at room temperature while being shaken lightly. […]
Then, the medium was carefully emptied, and the formazan crystals that were produced were dissolved with a DMSO/ethanol solution (4:1). Finally, the color intensity obtained was measured at 550 nm in an ELISA reader. […]

[3] = Blood-brain barrier passage of tritiated vGek in rats (radioactivity in organs); type: in vivo
Procedure: The test was performed as follows:
Rats were injected with […] of tritiated vGek (vGek of specific activity: 34.0 Ci/mmol). 10, 30 and 60 minutes after the injection, the animals were anesthetized, and blood as well as a few organs were removed for examination and weighed. Depending on the organ, 50-250 mg of tissue was removed in a solvent and incubated at 60° C. for 2 hours. After cooling to room temperature, 200 μl of 30% H2O2 was added. Then, another incubation at 60° C. was carried out for 30 minutes. Finally, the radioactivity was determined with the aid of a scintillation measuring device.

Compound | remaining at 3 h, 0.2 mM [1] [%] | remaining at 24 h, 0.2 mM ([1]; 24 hours) [%] | half-life at 0.2 mM [1] [min] | remaining at 0.25 h, 0.2 mM [1] [%] | remaining at 1 h, 0.2 mM [1] [%] | also measured
CC(C)[C@@H](N)C(=O)NCC(=O)N[C@H](CCC(=O)O)C(=O)N[C@H](CCCCN)C(=O)O [vGek, Dval-gly-Dglu-Dlys] (H-[dV]G[dE][dK]-OH; N-terminus and C-terminus assumed) |  |  |  |  |  | stability above that of the corresponding peptide KEGV ([1]; in vitro): 2-3 orders of magnitude; influence on the survival of cells (toxicity of the peptide alone) ([2]; 50 μmol vGek alone): no detectable influence on the survival of cells; highest measured value in the brain ([3]; injection of 2.94 mmol tritiated vGek): 1.33 pmol; passage through the blood-brain barrier ([3]; tritiated vGek): could overcome the blood-brain barrier
Aβ-1-42: amyloidogenic β-amyloid peptide with 42 amino acids, used pre-aggregated to damage cells |  |  |  |  |  | survival rate of SHSY-5Y cells ([2]; 10 μmol of pre-aggregated Aβ-1-42 alone): 56%

The next lines start with results.

remaining at 3 h, 0.2 mM [1] [%] | remaining at 24 h, 0.2 mM ([1]; 24 hours) [%] | half-life at 0.2 mM [1] [min] | remaining at 0.25 h, 0.2 mM [1] [%] | remaining at 1 h, 0.2 mM [1] [%] | Compound | also measured
70 | 50 | 1200 to 1440 |  |  | CC(C)[C@@H](N)C(=O)NCC(=O)N[C@H](CCC(=O)O)C(=O)N[C@H](CCCCN)C(N)=O [vGekNH2] (H-[dV]G[dE][dK]-NH2; N-terminus assumed) | detectability of peptide after 24 hours ([1]; 37° C., 24 hours): can be detected
0 | 0 | < 15 | 14 | 0 | CC(C)[C@H](NC(=O)CNC(=O)[C@H](CCC(=O)O)NC(=O)[C@@H](N)CCCCN)C(=O)O [KEGVOH] (H-KEGV-OH; N-terminus assumed) | 
0 | 0 | < 15 | 22 | 0 | CC(C)[C@H](NC(=O)CNC(=O)[C@H](CCC(=O)O)NC(=O)[C@@H](N)CCCCN)C(N)=O [KEGVNH2] (H-KEGV-NH2; N-terminus assumed) | 
